`COc1nccnc1OCC(O)CN1CCC(N2CCc3ccccc3C2=O)CC1` (stereo not given) displayed a melting point of 167 to 169 °C.

With `CCOC(=O)COc1cc(C(=O)OC)on1`, the melting point is 66 to 67 °C.

In turn, `COc1cc(OC)c2c(=O)cc(S)oc2c1C1CCN(C)CC1O` (stereo not given) gave a melting point of 184 to 185 °C.

The compound `CN1CCC(c2c(O)cc(O)c3c(=O)cc(Sc4ccccc4Cl)oc23)C(O)C1` (stereo not given) displayed a melting point of 110 °C.

`CC(=O)c1ccc2c(c1)C(C(=O)Nc1cccc(C(=O)Nc3ccccc3)c1)C(=O)N2CC(F)(F)F` (stereo not given) registered a melting point of 197 to 203 °C.

The compound `CCC(CC)C(NS(=O)(=O)c1ccc(C#N)cc1)c1ccnn1-c1ccccc1` (stereo not given) registered a melting point of 135 to 137 °C.

Take `Nc1nc(Nc2ccc(S(N)(=O)=O)cc2)sc1C(=O)c1ccc(C(=O)O)cc1`: the melting point was 298 to 300 °C.

On to `CC1(C)CC(=O)c2c(SCCO)sc(-c3ccccn3)c2C1`, for which the melting point was 175 to 177 °C.

`C=CCC1(c2ccccc2)OC(C(=O)OC)Oc2ccc(Cl)cc21` (stereo not given) gave a melting point of 70 °C.

In turn, `CN1CCC(Oc2cccc(C(=O)Nc3cc(NC(=O)c4ccc(C#N)cc4)ccc3Cl)c2)CC1` returned a melting point of 177 to 179 °C.

As to `CC(C)(C)N(NC(=O)c1cnccn1)C(=O)c1ccccc1`, the melting point is 181 to 183 °C.

`COc1ccc(C#N)c(C(=O)Cl)c1` gave a melting point of 192 to 194 °C.

In turn, `CCOC1CCCC(C2NC(=O)C2C(C)O[Si](C)(C)C(C)(C)C)C1O` (stereo not given) showed a melting point of 136 to 138 °C.

Turning to `NS(=O)(=O)c1ncccc1O`, the melting point was in the range of 162 to 164 °C.

For `Cc1cccnc1S(=O)(=O)NC(C)(C)C`, the melting point lay in the range of 107 to 110 °C.

`CCC(C)(CC)c1nnc(NC(=O)c2c(OC)cccc2OC)[nH]1` registered a melting point of 279 to 280 °C.

In turn, `CC(C)[C@H](NCCC#N)C(=O)O` returned a melting point of 245 to 250 °C.

On to `CC(C)CCCC(C)NC(=O)Oc1ccc2oc3ccccc3c2c1` (stereo not given), for which the melting point was 114 to 115 °C.

Turning to `COc1ccc(-c2ccc(C)nc2-c2ccc(O)cc2)cc1`, the melting point turned out to be 190 °C.

`CCOC(=O)CNC(=O)CCCCCNC(=O)c1ccc(S(C)(=O)=O)cc1` came in with a melting point of 124 to 126 °C.

`CCn1ncc2c1ncc1c(Nc3cccc(C(F)(F)F)c3)nc3cc(C)nn3c12` showed a melting point of 205 to 206 °C.

As to `CCCc1nn(C)c2c(=O)[nH]c(-c3cc(S(=O)(=O)Cl)cc4c3OCC4)nc12`, the melting point lay in the range of 221 to 222 °C.

For the compound `COC(=O)CCC(=O)c1cc(NC(C)=O)ccc1OCC(O)CNC(C)(C)C` (stereo not given), the melting point fell in the range of 127 to 128 °C.

Regarding `Cc1ccc(CSc2nc3cc4c(cc3[nH]2)OCCO4)nc1`, the melting point fell in the range of 155 to 156 °C.

As to `CSc1nc(NCc2ccc(Br)cc2)n2ncc(C(C)C)c2n1`, the melting point was 171 to 172 °C.

Compound `O=C(Nc1ccc(N2CCN(C(=O)Nc3ccc(OCCO)cc3C(F)(F)F)CC2)cc1)Nc1ccccc1OC(F)F` returned a melting point of 118 to 120 °C.

`CS(=O)(=O)c1ccc(-c2cc(C(=O)CCCO[N+](=O)[O-])nn2-c2ccc(C(F)(F)F)cc2)cc1`: the melting point was in the range of 152 to 154 °C.

Consider `CCCCCc1c(C(C)C)nc(C(C)C)c(CO)c1-c1ccc(C(C)C)cc1`, for which the melting point was 42 to 44 °C.

For `Cc1ccccc1OCC(O)CNCCOc1ccc(C(N)=O)cn1` (stereo not given), the melting point was 139 to 141 °C.

As for `O=C(O)Cc1cccc(Oc2ccccc2)c1O`, the melting point lay in the range of 132 to 135 °C.

`O=C1CCC2=C(CCc3cccc(Cl)c32)N1` displayed a melting point of 184 °C.

With `O=C(c1ccccc1O)N1CCc2cc(S(=O)(=O)N3CC(c4ccccc4)NC3=O)ccc21` (stereo not given), the melting point was 221 °C.

Take `C[C@@H](c1ccccc1)N1CC[C@@H](C2(N(Cc3ccccc3)Cc3ccccc3)CC2)C1`: the melting point is 61 to 61.3 °C.

Regarding `CN1C(=O)C(O)(c2ccccc2)c2cccc(Cl)c21` (stereo not given), the melting point lay in the range of 125 to 127 °C.

The compound `COc1ccc(Sc2ccc([N+](=O)[O-])cc2)c(Cl)c1Cl` registered a melting point of 236 to 237 °C.

Regarding `CCCOc1ccccc1-c1nc2nc(NCCCS(C)=O)ncc2c(=O)[nH]1` (stereo not given), the melting point was 188 to 189 °C.

The compound `O=[N+]([O-])c1cccnc1Oc1nn(Cc2ccccc2F)c2ncccc12` had a melting point of 115 to 117 °C.

For the compound `COc1ccc(OC(F)(F)F)cc1[C@H]1CO[C@]2(CCCN[C@H]2c2ccccc2)C1`, the melting point fell in the range of 91 to 104 °C.

Consider `COC(=S)c1[nH]c2ccc(Cl)cc2c1-c1ccccc1`, for which the melting point was in the range of 193 to 196 °C.

`Cc1cc(C(O)(c2cc(C)sc2C)c2cc(C)sc2C)c(C)s1` came in with a melting point of 110 to 111 °C.

For `NCCSc1c(S(=O)(=O)c2ccccc2)c2ccccc2n1Cc1ccccc1`, the melting point lay within 149 to 150 °C.

`N#Cc1c(N2CCCCC2)cccc1[N+](=O)[O-]` returned a melting point of 119 to 121 °C.

`Nc1cccc(S(=O)(=O)NCc2ccccn2)c1` yielded a melting point of 124 °C.

With `CC1COCc2nc3c(N)nc4cc(CCC(=O)N(C)C)ccc4c3n21` (stereo not given), the melting point is 235 to 237 °C.

Turning to `CNC(=O)c1ccc(-c2cccc3nc(Nc4cc(OC)c(OC)c(OC)c4)oc23)cc1`, the melting point was 258 to 259 °C.

Compound `COC(=O)C(CCBr)Oc1cc([N+](=O)[O-])cc2c1CCCC2` (stereo not given) returned a melting point of 99 to 100 °C.

Regarding `Nc1c(N(CC(=O)O)Cc2ccccc2)c(=O)c1=O`, the melting point was in the range of 177 to 179 °C.

`COc1ccc2cc(C(C)CC(C)=O)cc(F)c2c1` (stereo not given) returned a melting point of 38 to 39 °C.

In turn, `OC1(c2ccc(Cl)nc2)CCCC1` displayed a melting point of 92 to 93 °C.

Take `CC(=O)N(C)C1CCC(=O)c2ccccc21` (stereo not given): the melting point fell in the range of 101 to 103 °C.

Regarding `COC(=O)c1cccc(-c2cnc3c(c2)N(Cc2ccccc2)C(=O)CN3)c1`, the melting point turned out to be 211 °C.

`Nc1nc(COCC(F)(F)F)nc2nccnc12` registered a melting point of 145 to 147 °C.

Compound `COc1ccccc1C(=O)NS(=O)(=O)c1ccc(N)cc1` yielded a melting point of 180 to 182 °C.

In turn, `C1=C(c2cccc3c2ccn3Cc2ccccc2)CCN(Cc2ccccc2)C1` had a melting point of 154 °C.

In turn, `CCN(c1cc(S(C)(=O)=O)ccc1C(=O)O)S(C)(=O)=O` came in with a melting point of 199 to 200 °C.

`CCOC(=O)c1cc(CC)sc1Nc1ccc(Cl)cc1N` had a melting point of 119 to 121 °C.

Regarding `CCCN1C(=O)c2ccccc2Sc2ccccc21`, the melting point fell in the range of 103 to 104 °C.

`CC1(C)c2cc(C#N)ccc2OC1N=C=S` (stereo not given): the melting point was found to be 52 °C.

Compound `N[C@@H](CSCC1CCN(C(=O)OCc2ccccc2)CC1)C(=O)O` gave a melting point of 187 to 190 °C.

As to `CCOC(=O)C1=C(C)NC(C)=C(C(=O)OCC)C1c1csc2ccc([N+](=O)[O-])cc12`, the melting point lay within 255 to 259 °C.

Compound `COc1cc2c(cc1OC)C(=O)C(Br)C2` (stereo not given) gave a melting point of 159 to 160 °C.

`COc1ccc(C(=O)NCC(O)CC(=O)O)cc1OCc1ccccc1` (stereo not given) came in with a melting point of 158 to 160 °C.

In turn, `O=C1CCc2ccc(OCCCCN3CCN(c4cccc5c4CCCC5=O)CC3)nc2N1` had a melting point of 169 to 170 °C.

On to `FC(F)C(F)(F)Oc1cccc(Nc2nccc(-c3cncc4ccccc34)n2)c1`, for which the melting point was in the range of 158 to 160 °C.

Compound `C=CCNc1ccc(C(=O)OC)cc1` gave a melting point of 71 to 73 °C.

For orientation: melting point means the temperature, or range, at which the solid turns liquid.

The values above are taken from a melting point compilation (Tetko et al.; mined from patent text by program, amines drawn as free bases though some values may be those of a salt).
